Earlier results, collected in patent publication US20090047245A1, “Prognostic chronic hepatitis C biomarkers” (priority 2007, published 2009).

Test system: HCV

NC(=O)c1ncn([C@@H]2O[C@H](CO)[C@@H](O)[C@H]2O)n1 [ribavirin]
increase of the sustained response rate (ribavirin added to interferon): two- to three-fold | effect on HCV (ribavirin by itself): little effect on HCV
